A value given as a limit tells only on which side of the number the result lay.

A word on the IC50: it is the concentration at which inhibition is half-maximal. The Tmax is the time from dosing to the highest level. By Cmax is commonly meant the peak of the concentration-time curve.

Series [1] in a line: Inhibitory concentration required to inhibit PDGFR kinase was determined.
Series [2] addresses T1, Breakpoint cluster region protein (Homo sapiens, UniProt P11274).
T1 sequence (P11274 whole entry): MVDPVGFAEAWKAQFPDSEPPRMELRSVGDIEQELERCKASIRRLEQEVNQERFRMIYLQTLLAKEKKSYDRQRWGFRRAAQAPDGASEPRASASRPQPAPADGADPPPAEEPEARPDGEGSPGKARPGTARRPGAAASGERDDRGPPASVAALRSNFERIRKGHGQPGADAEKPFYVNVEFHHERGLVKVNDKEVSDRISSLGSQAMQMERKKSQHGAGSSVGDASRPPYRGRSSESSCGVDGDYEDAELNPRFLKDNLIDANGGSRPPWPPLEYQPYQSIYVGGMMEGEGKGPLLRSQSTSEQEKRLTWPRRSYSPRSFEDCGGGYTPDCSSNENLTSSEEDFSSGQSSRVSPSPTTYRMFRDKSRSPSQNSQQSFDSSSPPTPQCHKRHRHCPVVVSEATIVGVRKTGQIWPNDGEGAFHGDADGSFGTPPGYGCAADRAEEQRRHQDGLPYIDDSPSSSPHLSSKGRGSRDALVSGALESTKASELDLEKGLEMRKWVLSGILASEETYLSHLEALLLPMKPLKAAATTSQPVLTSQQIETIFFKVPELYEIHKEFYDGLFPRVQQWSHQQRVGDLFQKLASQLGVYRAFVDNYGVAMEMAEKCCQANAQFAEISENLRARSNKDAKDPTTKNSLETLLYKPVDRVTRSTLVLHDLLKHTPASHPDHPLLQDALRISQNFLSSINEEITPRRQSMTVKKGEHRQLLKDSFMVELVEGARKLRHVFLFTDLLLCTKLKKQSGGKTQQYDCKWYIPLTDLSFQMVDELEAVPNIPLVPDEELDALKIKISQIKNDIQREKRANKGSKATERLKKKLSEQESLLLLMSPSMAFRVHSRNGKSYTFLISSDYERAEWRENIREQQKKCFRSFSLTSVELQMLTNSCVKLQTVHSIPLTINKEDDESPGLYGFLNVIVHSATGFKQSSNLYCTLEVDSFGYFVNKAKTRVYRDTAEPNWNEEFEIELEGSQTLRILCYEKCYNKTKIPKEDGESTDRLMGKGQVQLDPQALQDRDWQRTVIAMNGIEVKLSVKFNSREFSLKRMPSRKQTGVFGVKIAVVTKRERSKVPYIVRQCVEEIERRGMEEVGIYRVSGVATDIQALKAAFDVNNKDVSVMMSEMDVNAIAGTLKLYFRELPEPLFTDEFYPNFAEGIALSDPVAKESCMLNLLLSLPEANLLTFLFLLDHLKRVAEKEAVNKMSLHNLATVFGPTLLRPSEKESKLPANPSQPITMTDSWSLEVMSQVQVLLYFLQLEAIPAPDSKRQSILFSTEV
The series is described as follows: Inhibitory concentration required to inhibit Bcr-Abl tyrosine kinase.

Series [3] concerns the target Tyrosine-protein kinase ABL1 (Homo sapiens, UniProt P00519). The series is described as follows: Inhibitory concentration required to inhibit Abl tyrosine kinase.
Series [4] in a line: Plasma concentration after 120 minutes gavage was determined in mice after 20 mg/kg oral administration of the compound. It counts as ADME, organism-based. More on the design: dose 20 mg/kg, route oral. Particulars: mouse, read-out: C120.
The nature of series [5]: Maximum plasma concentration time in minutes was determined in mice after 20 mg/kg oral administration of the compound. Particulars: mouse. It counts as ADME, organism-based. More on the design: dose 20 mg/kg, route oral.
Series [6] is described as follows: Maximum plasma concentration was determined in mice after 20 mg/kg oral administration of the compound. It is filed as ADME, organism-based. More on the design: dose 20 mg/kg, route oral. As to conditions: mouse.

Sequence of Tyrosine-protein kinase ABL1 (P00519 whole entry): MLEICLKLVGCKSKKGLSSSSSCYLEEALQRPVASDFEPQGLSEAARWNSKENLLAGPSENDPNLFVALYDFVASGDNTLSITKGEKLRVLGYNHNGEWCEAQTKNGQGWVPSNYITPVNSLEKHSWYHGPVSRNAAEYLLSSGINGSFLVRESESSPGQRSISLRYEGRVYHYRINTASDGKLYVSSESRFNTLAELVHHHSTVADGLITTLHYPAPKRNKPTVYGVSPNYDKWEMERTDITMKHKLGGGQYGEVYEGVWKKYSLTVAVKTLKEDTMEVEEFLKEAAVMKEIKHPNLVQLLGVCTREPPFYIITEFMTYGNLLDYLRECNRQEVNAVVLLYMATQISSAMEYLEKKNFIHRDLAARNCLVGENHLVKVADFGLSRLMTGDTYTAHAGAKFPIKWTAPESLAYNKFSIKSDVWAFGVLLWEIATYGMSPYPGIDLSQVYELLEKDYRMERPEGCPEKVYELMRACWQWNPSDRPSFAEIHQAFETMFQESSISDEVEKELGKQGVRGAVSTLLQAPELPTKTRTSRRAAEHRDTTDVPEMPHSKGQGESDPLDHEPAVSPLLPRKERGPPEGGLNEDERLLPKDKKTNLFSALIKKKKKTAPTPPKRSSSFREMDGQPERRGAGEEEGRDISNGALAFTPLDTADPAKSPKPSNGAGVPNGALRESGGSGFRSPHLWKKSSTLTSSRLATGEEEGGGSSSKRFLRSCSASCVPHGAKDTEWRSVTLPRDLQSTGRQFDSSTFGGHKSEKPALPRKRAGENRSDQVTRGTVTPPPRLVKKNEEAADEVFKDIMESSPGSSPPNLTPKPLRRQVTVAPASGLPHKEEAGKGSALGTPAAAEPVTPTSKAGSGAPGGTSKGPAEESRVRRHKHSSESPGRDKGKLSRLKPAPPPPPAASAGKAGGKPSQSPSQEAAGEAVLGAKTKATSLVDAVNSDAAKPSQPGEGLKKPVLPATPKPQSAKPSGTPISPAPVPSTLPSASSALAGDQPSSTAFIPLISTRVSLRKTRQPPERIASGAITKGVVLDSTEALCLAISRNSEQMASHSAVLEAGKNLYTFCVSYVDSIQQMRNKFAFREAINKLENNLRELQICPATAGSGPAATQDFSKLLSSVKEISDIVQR

Turning to `Cc1ccc(NC(=O)N2CCN(Cc3ccncc3)CC2)cc1Nc1nccc(-c2cccnc2)n1`, it took 256 nM to reach half-maximal inhibition in series [1] (IC50).
Still for that read-out and setting: with `Cc1ccc(NC(=O)NCCCO)cc1Nc1nccc(-c2cccnc2)n1` the figure was > 3000 nM.
With `Cc1ccc(NC(=O)Nc2ccc(N(C)C)cc2)cc1Nc1nccc(-c2cccnc2)n1`, the concentration for half-maximal inhibition (IC50) in series [1] is 1730 nM; in series [2] (read-out: IC50), > 10000 nM; in series [3], > 5000 nM.
In the case of `Cc1ccc(NC(=O)Nc2cccc(N3CCCC3)c2)cc1Nc1nccc(-c2cccnc2)n1`, in series [1], the IC50 is > 2500 nM.
On the same count and under the same terms, the figure for `Cc1ccc(NC(=O)NCCCN2CCOCC2)cc1Nc1nccc(-c2cccnc2)n1` is 414 nM; for `Cc1ccc(NC(=O)N(C)CCCO)cc1Nc1nccc(-c2cccnc2)n1` it is > 3000 nM.
`Cc1ccc(NC(=O)N2CCCCC2)cc1Nc1nccc(-c2cccnc2)n1` returned an IC50 in series [1] of 63 nM. The concentration at 2 h in series [4] is 510 nM. In series [5], the Tmax was 30 min. Also, in series [6], the Cmax stood at 4320 nM.
On to `Cc1ccc(NC(=O)N2CCN(C)CC2)cc1Nc1nccc(-c2cccnc2)n1`, for which the values for the IC50 in series [1] and in series [2] (read-out: IC50) were 132 nM and > 5000 nM, respectively.
With `CCN(CC)c1ccc(NC(=O)Nc2ccc(C)c(Nc3nccc(-c4cccnc4)n3)c2)cc1`, the IC50 was 2020 nM in series [1], > 10000 nM in series [2] (read-out: IC50) and > 3400 nM in series [3].
`Cc1ccc(NC(=O)NCCCn2ccnc2)cc1Nc1nccc(-c2cccnc2)n1`: the IC50 in series [1] was > 1300 nM.
Consider `Cc1ccc(NC(=O)Nc2cccc(CN3CCN(C)CC3)c2)cc1Nc1nccc(-c2cccnc2)n1`, for which half-maximal inhibition in series [1] (IC50) was put at 192 nM.
On to `Cc1ccc(NC(=O)Nc2cccc(Cl)c2)cc1Nc1nccc(-c2cccnc2)n1`, for which the IC50 in series [1] is 17 nM; in series [2] (read-out: IC50) it was 1000 nM; in series [3], 175 nM.
As for `Cc1ccc(NC(=O)NCc2ccc(N(C)C)cc2)cc1Nc1nccc(-c2cccnc2)n1`, in series [1], inhibition was half-maximal at 236 nM (IC50).
Same read-out and setting: with `Cc1ccc(NC(=O)NCCCN(C)C)cc1Nc1nccc(-c2cccnc2)n1` the figure was > 1600 nM.
Take `Cc1ccc(NC(=O)Nc2cccnc2)cc1Nc1nccc(-c2cccnc2)n1`: the values for the 50% inhibitory concentration (IC50) in series [1] and in series [3] were 96 nM and 1000 nM, respectively.
`Cc1ccc(NC(=O)Nc2cccc3[nH]ncc23)cc1Nc1nccc(-c2cccnc2)n1`: the 50% inhibitory concentration (IC50) in series [1] was found to be 375 nM.
On the same count and under the same terms, with `Cc1ccc(NC(=O)N2CCC(N3CCCC3)CC2)cc1Nc1nccc(-c2cccnc2)n1` the figure was 176 nM.
`Cc1ccc(NC(=O)NCCN2CCCC2)cc1Nc1nccc(-c2cccnc2)n1`: the IC50 is 655 nM in series [1] and > 9000 nM in series [2] (read-out: IC50).
On to `Cc1ccc(NC(=O)Nc2ccccc2CN(C)C2CCCCC2)cc1Nc1nccc(-c2cccnc2)n1`, for which the IC50 is 100 nM in series [1] and 870 nM in series [3].
`Cc1ccc(NC(=O)Nc2cccc3ncccc23)cc1Nc1nccc(-c2cccnc2)n1`: the half-inhibitory concentration (IC50) in series [1] was 64 nM. The concentration at 2 h in series [4] amounted to 50 nM. Also, in series [5], the time to peak (Tmax) was 30 min. In addition, the maximum concentration (Cmax) in series [6] was 170 nM.
For `CCN(CC)c1cccc(NC(=O)Nc2ccc(C)c(Nc3nccc(-c4cccnc4)n3)c2)c1`, the IC50 is 47 nM in series [1], > 1000 nM in series [2] (read-out: IC50) and 280 nM in series [3].
On to `Cc1ccc(NC(=O)Nc2cccc(N(C)C)c2)cc1Nc1nccc(-c2cccnc2)n1`, for which the figures for the IC50 in series [1], in series [2] and in series [3] were 26 nM, 573 nM and 56 nM, respectively. The concentration at 2 h in series [4] turned out to be 300 nM. Further, the Tmax in series [5] was 30 min. The same compound came in with a Cmax in series [6] of 1370 nM.
